According to US5948802A, “Benzoate derivatives of diaryl 1,3,4-oxadiazolone” (Bristol-Myers Squibb Company, priority 1999, dated 1999):
Structures can show the parent of a compound that is named as a salt.

How the values were obtained:
[1] = Rapid screen of prodrug hydrolysis and drug release in plasma; type: in vitro ADME; details: 10 ug/mL in fresh rat plasma at 37° C.; analysis 5 minutes after incubation; stock 1 mg/mL in PEG-400
Protocol: A rapid screen to determine the ability of prodrugs to hydrolyze and release the drug (compound of Preparation 1) is conducted as follows. A 1 mg/mL stock solution of the prodrug is prepared in distilled water or acetonitrile or PEG-400. Plasma from freshly collected rat or human blood is used in this assay. To 1 mL of plasma at 37° C. was added 10 μL of stock solution of prodrug and mixed gently. Immediately after the mixing, 100 μL of plasma was removed and quenched with 300 μL of acetontrile (Zero time sample). Samples were also obtained at 30 minutes and quenched immediately. The quenched samples were centrifuged to obtain a clear supernatant for analysis. The stock solution, T=0 and T=30 samples were analyzed by a HPLC assay that separates the drug from the prodrug. Based on the relative peak areas of prodrug and drug in these samples, different prodrugs are characterized as fast, moderate and slow release agents. For example, in this model, the compound of Example 1 was dissolved in PEG-400 at a concentration of 1 mg/mL and incubated at 10 ug/mL in fresh rat plasma at 37° C.

focal cerebral ischemia = experiment: Focal stroke model: permanent MCA and CCA occlusion, cortical infarct volume; type: in vivo, Wistar rat; details: 10 μg/kg i.v. single bolus two hours after MCA occlusion; measured 24 hours after MCAO; vs vehicle-treated (water) control
Protocol: To determine the ability of the compounds of the present invention to reduce cell loss resulting from neuronal ischemia, a standard focal cerebral ischemia is induced by permanent occlusion of the left middle cerebral artery (MCA) and common carotid artery (CCA) with one hour occlusion of the right CCA in the Wistar rat. The surgeries are performed using the sub-temporal approach of A. Tamura, et al., J. Cereb. Blood Flow Metab., 1, pp. 53-60, (1981) and its modifications [K. Osborne, et al., J. Neurol Neurosurg. Psychiatry, 50, pp. 402-410 (1987) and S. Menzies,et al., Neurosurgery, 31, pp. 100-107, (1992).]
The compound of Preparation 1 was evaluated in the focal stroke model involving permanent occlusion of the left MCA (MCAO) and CCA (CCAO) and temporary occlusion of the right CCA in the Wistar rat. This procedure results in a reliably large neocortical infarct volume that is measured by means of vital dye exclusion in serial slices through the brain 24 hours after MCAO. In the present test, compounds were administered using an i.v. or i.p. route of administration two hours after occlusion.

[2] = system: non-BK native currents in the oocytes; experiment: Effect on non-BK (IBTX-insensitive) native currents in oocytes; type: cell-based, Xenopus; details: at the tested concentration
Protocol: (§1) The ability of the compound of Preparation 1 to open BK channels and increase whole-cell outward (K^+) BK-mediated currents was assessed under voltage-clamp conditions by determining their ability to increase cloned mammalian (mSlo or hSlo) BK-mediated outward current heterologously expressed in Xenopus oocytes [Butler, A., et al., Science, 261, pp. 221-224 (1993); and Dworetzky, S. I., et al., Mol. Brain Res., 27, pp.189-193 (1994)]. The two BK constructs employed represent nearly structurally identical homologous proteins, and have proven to be pharmacologically identical in our tests. To isolate BK current from native (background, non-BK) current, the specific and potent BK channel-blocking toxin iberiotoxin (IBTX) [Galvez, A., et al., J. Biol. Chem, 265, pp. 11083-11090 (1990)] was employed at a supramaximal concentration (50 nM). The relative contribution of BK channels current to total outward current was determined by subtraction of the current remaining in the presence of IBTX (non-BK current) from the current profiles obtained in all other experimental conditions (control, drug, and wash). […]

[3] = system: cloned mammalian (mSlo or hSlo) BK-mediated outward current; experiment: Increase of cloned BK-mediated outward current in Xenopus oocytes, two-electrode voltage clamp; type: cell-based; details: 1 μM; at least 5 oocytes; mSlo or hSlo expressed in Xenopus oocytes
Protocol: as §1

SMILES | conversion of prodrug to the compound of Preparation 1 [1] | reduction of cortical infarct volume (focal cerebral ischemia) | effect on non-BK native currents in the oocytes [2] | BK current, % of control of IBTX-sensitive current [3]
CCN(CC)Cc1ccc(C(=O)Oc2ccc(Cl)cc2Cn2nc(-c3ccc(C(F)(F)F)cc3)oc2=O)cc1 [Example 1, 4-Chloro-2-[[5-[4-(trifluoromethyl)phenyl]-2,3-dihydro-2-oxo-1,3,4-oxadiazol-3-yl]methyl]phenyl 4-[(diethylamino)-methylbenzoate hydrochloride] | indicated conversion of the compound of Example 1 to the compound of Preparation 1 | – | – | –
O=c1oc(-c2ccc(C(F)(F)F)cc2)nn1Cc1cc(Cl)ccc1O [Preparation 1, 3-[(5-Chloro-2-hydroxyphenyl)methyl]-5-[4-(trifluoromethyl)phenyl]-1,3,4-oxadiazol-2(3H)-one] | – | about 18% | did not effect non-BK native currents | 126%
